Among the data in patent publication US20050282818A1, “Ubiquitin ligase inhibitors” (Rigel Pharmaceuticals, Inc., priority 2004, published 2005) are IC50 values, retold here.

For orientation: IC50 means the concentration that inhibits the measured activity by half.

For assay [1], the target named is APC11/APC2 (Homo sapiens, UniProt Q9NYG5+Q9UJX6). Kind of assay: APC-11/APC-2 ligase assay (APC auto ubiquitination). Particulars: APC assay. The assay is classed as biochemical. In short, it runs like this: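 His-tagged APC was captured on nickel plates with human E1 (5 ng/well), UbcH5c (20 ng/well), APC (100 ng/well) and Flag-ubiquitin (100 ng/well) in a Tris pH 7.6 reaction buffer containing 2.5 mM ATP, for 1 hour at room temperature. Read-out was anti-Flag/HRP chemiluminescence. IC50 was set against a DMSO control, typically from 6 or 8 concentrations.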
Chain of APC11/APC2 (Q9NYG5 whole entry): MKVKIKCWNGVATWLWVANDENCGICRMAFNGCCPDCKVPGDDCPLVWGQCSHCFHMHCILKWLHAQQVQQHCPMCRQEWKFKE
Chain of APC11/APC2 (Q9UJX6 whole entry): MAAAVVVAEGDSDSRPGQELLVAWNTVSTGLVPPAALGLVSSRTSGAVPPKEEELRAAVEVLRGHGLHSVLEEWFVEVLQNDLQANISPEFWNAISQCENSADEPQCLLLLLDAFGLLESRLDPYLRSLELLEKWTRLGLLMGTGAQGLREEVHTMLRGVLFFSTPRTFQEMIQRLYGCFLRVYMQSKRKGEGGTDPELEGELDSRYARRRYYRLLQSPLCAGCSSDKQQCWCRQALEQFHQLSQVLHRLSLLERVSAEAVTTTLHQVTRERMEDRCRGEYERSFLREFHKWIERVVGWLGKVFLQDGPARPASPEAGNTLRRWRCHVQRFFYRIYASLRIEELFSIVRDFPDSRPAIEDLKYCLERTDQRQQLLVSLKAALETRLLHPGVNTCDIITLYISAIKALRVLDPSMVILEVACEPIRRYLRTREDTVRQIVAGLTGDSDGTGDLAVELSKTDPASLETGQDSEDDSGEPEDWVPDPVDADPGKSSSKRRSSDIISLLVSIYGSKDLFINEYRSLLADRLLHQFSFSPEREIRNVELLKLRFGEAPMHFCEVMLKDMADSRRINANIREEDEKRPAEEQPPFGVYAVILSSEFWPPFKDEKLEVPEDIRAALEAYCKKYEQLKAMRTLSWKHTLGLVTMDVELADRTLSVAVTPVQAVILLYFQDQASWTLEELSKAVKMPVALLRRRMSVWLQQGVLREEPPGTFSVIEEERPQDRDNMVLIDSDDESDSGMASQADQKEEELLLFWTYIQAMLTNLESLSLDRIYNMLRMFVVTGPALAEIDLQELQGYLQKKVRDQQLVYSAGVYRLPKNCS

In assay [2] the test system is ICAM-1 expression in A549 cells. The experiment in a line: ICAM assay (IL-1 induced ICAM-1/CD54 expression in A549 cells). The assay is classed as cell-based, human. To be noted: Homo sapiens, A549, ICAM assay. In short, it runs like this:
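Luminescent immunostaining (anti-CD54, then anti-mouse IgG, 1 h) quantifies ICAM-1 on A549 cells induced 4 h at 37° C by IL-1 (4 μl of 25 ng/ml added). Compound is added 1 h before the cytokine to cells plated overnight at 10,000 per well.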

The target of assay [3] is T1, TRAF6/Uev1A/Ubc13 (Homo sapiens, UniProt Q9Y4K3).
T1 sequence (Q9Y4K3 1-522): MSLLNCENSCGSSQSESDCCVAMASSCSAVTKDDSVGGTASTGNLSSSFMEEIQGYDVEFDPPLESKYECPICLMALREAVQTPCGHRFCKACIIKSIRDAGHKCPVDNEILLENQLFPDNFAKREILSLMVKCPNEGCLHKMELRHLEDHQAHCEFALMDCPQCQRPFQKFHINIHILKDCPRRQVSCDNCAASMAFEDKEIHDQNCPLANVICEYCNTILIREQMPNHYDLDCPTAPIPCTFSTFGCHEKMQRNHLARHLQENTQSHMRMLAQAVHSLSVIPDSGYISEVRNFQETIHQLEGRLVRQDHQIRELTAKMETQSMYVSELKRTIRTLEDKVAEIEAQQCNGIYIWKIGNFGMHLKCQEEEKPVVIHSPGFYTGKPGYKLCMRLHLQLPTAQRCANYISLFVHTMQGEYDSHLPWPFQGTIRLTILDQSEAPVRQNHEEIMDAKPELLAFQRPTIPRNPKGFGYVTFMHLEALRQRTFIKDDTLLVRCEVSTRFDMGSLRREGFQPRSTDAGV
The experiment in a line: TRAF6/Uev1A/Ubc13 plate-based ubiquitin ligase assay. Type of assay: biochemical. In short, it runs like this:
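Ligase activity was read as luminescence from anti-Flag/HRP detection of Flag-ubiquitin bound to casein-blocked Ni-plates alongside His-ubiquitin after a 1 h room-temperature reaction. Buffer: 62.5 mM Tris pH 7.5, 6.25 mM MgCl2, 1.0 mM DTT, 2 μM ATP; E1, Uev1a/Ubc13 and TRAF6 added last to start. IC50s derived across compound concentrations.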

`O=S(=O)(NCCCc1ccccc1)c1ccc(Cl)c2nonc12` [compound 445, 7-chloro-N-(3-phenylpropyl)-2,1,3-benzoxadiazole-4-sulfonamide]: the half-maximal inhibitory concentration (IC50) in assay [1], in assay [2] and in assay [3] was at least 20 µM throughout.
Turning to `O=S(=O)(NCc1ccccn1)c1ccc(Cl)c2nonc12` [compound 446, 7-chloro-N-(pyridin-2-ylmethyl)-2,1,3-benzoxadiazole-4-sulfonamide], the IC50 in assay [1] was at least 20 µM; in assay [2], 1 to 20 µM; in assay [3], at least 20 µM.
Take `O=S(=O)(NCC1CCCCC1)c1ccc(Cl)c2nonc12` [compound 447, 7-chloro-N-(cyclohexylmethyl)-2,1,3-benzoxadiazole-4-sulfonamide]: the 50% inhibitory concentration (IC50) in assay [1] is at least 20 µM; in assay [2], 1 to 20 µM; in assay [3], at least 20 µM.
As to `O=S(=O)(NC1CCCCC1)c1ccc(Cl)c2nonc12` [compound 448, 7-chloro-N-(cyclohexyl)-2,1,3-benzoxadiazole-4-sulfonamide], the IC50 in assay [1] is at least 20 µM; in assay [2], 1 to 20 µM; in assay [3], at least 20 µM.
As to `O=S(=O)(NCC1CC1)c1ccc(Cl)c2nonc12` [compound 449, 7-chloro-N-(cyclopropylmethyl)-2,1,3-benzoxadiazole-4-sulfonamide], the half-maximal inhibitory concentration (IC50) in assay [1], in assay [2] and in assay [3] was at least 20 µM each time.
As to `COc1ccc2nonc2c1-c1cc(C)cc(C)c1` [compound 450, 4-(3,5-dimethylphenyl)-5-methoxy-2,1,3-benzoxadiazole], the half-maximal inhibitory concentration (IC50) in assay [1], in assay [2] and in assay [3] was at least 20 µM each time.
In the case of `O=[N+]([O-])c1ccc(C2=CCCCC2)c2nonc12` [compound 451, 4-cyclohexenyl-7-nitro-2,1,3-benzoxadiazole], the IC50 is at least 20 µM in assay [1], 1 to 20 µM in assay [2] and at least 20 µM in assay [3].
`Cc1ccc2nsnc2c1S(=O)(=O)Nc1ccccc1F` [compound 452, N-(2-fluorophenyl)-5-methyl-2,1,3-benzthiadiazole-4-sulfonamide]: the 50% inhibitory concentration (IC50) in assay [1], in assay [2] and in assay [3] was at least 20 µM in each case.
Take `CC(=O)Nc1ccc(-c2ccc(C(C)(C)C)cc2)c2nonc12` [compound 453, N-(7-(4-t-butylphenyl)-2,1,3-benzoxadiazol-4-yl)acetamide]: the IC50 is 1 to 20 µM in assay [1], at least 20 µM in assay [2] and at least 20 µM in assay [3].
For `CC(C)(C)c1ccc(-c2cc3cc(O)ccc3c3nonc23)cc1` [compound 454], the IC50 is 1 to 20 µM in assay [1], at least 20 µM in assay [2] and at least 20 µM in assay [3].
Take `O=S(=O)(NCc1ccncc1)c1ccc(Cl)c2nonc12` [compound 455, 7-chloro-N-(pyridin-4-ylmethyl)-2,1,3-benzoxadiazole-4-sulfonamide]: the concentration for half-maximal inhibition (IC50) in assay [1] was at least 20 µM; in assay [2], 1 to 20 µM; in assay [3], at least 20 µM.
As for `O=C1CCCN1CCCNS(=O)(=O)c1ccc(Cl)c2nonc12` [compound 456, 7-chloro-N-(3-[2-oxopyrrolidin-1-yl]propyl)-2,1,3-benzoxadiazole-4-sulfonamide], the IC50 in assay [1], in assay [2] and in assay [3] was at least 20 µM in each case.
Turning to `Cc1cccc(-c2cc3nsnc3cc2F)c1C` [compound 457, 5-(2,3-dimethylphenyl)-6-fluoro-2,1,3-benzthiadiazole], the 50% inhibitory concentration (IC50) in assay [1], in assay [2] and in assay [3] was at least 20 µM in each case.
With `Fc1cc2nsnc2cc1-c1ccccc1` [compound 458, 5-fluoro-6-phenyl-2,1,3-benzthiadiazole], the IC50 in assay [1], in assay [2] and in assay [3] was at least 20 µM each time.
Take `Cc1ccc(-c2cc3nsnc3cc2F)cc1C` [compound 459, 5-(3,4-dimethylphenyl)-6-fluoro-2,1,3-benzthiadiazole]: the IC50 in assay [1], in assay [2] and in assay [3] was at least 20 µM throughout.
Take `Fc1cc2nsnc2cc1-c1cccc2c1OCO2` [compound 460, 5-(benzodioxol-4-yl)-6-fluoro-2,1,3-benzthiadiazole]: the IC50 in assay [1], in assay [2] and in assay [3] was at least 20 µM each time.
For `Cc1cc(C)cc(-c2cc3nsnc3cc2F)c1` [compound 461, 5-(3,5-dimethylphenyl)-6-fluoro-2,1,3-benzthiadiazole], the half-inhibitory concentration (IC50) in assay [1], in assay [2] and in assay [3] was at least 20 µM in each case.
As to `COc1ccc(-c2cc3nsnc3cc2F)cc1` [compound 462, 5-(4-methoxyphenyl)-6-fluoro-2,1,3-benzthiadiazole], the 50% inhibitory concentration (IC50) in assay [1], in assay [2] and in assay [3] was at least 20 µM each time.
Take `COc1ccc(-c2cc3nsnc3cc2F)cc1OC` [compound 463, 5-(3,4-dimethoxyphenyl)-6-fluoro-2,1,3-benzthiadiazole]: the IC50 in assay [1], in assay [2] and in assay [3] was at least 20 µM throughout.
In the case of `O=[N+]([O-])c1ccc(-c2ccc(Oc3ccccc3)cc2)c2nonc12` [compound 464, 4-nitro-7-(4-phenoxyphenyl)-2,1,3-benzoxadiazole], the IC50 in assay [1], in assay [2] and in assay [3] was 1 to 20 µM throughout.
For the compound `COc1ccc(-c2ccc([N+](=O)[O-])c3nonc23)cc1OC` [compound 465, 4-(3,4-dimethoxyphenyl)-7-nitro-2,1,3-benzoxadiazole], the values for the IC50 in assay [1], in assay [2] and in assay [3] were at least 20 µM, 1 to 20 µM and at least 20 µM, respectively.
On to `COc1ccc(-c2ccc([N+](=O)[O-])c3nonc23)cc1` [compound 466, 4-(4-methoxyphenyl)-7-nitro-2,1,3-benzoxadiazole], for which the IC50 in assay [1] is at least 20 µM; in assay [2], 1 to 20 µM; in assay [3], 1 to 20 µM.
For `O=[N+]([O-])c1ccc(-c2ccc3c(c2)OCO3)c2nonc12` [compound 467, 4-(benzodioxol-5-yl)-7-nitro-2,1,3-benzoxadiazole], the half-maximal inhibitory concentration (IC50) in assay [1], in assay [2] and in assay [3] was 1 to 20 µM throughout.
For `Cc1ccc(-c2ccc([N+](=O)[O-])c3nonc23)cc1` [compound 468, 4-(4-methylphenyl)-7-nitro-2,1,3-benzoxadiazole], the concentration for half-maximal inhibition (IC50) was 1 to 20 µM in assay [1], 1 to 20 µM in assay [2] and at least 20 µM in assay [3].
As for `O=[N+]([O-])c1ccc(-c2cccc3ccccc23)c2nonc12` [compound 469, 4-(naphthalen-1-yl)-7-nitro-2,1,3-benzoxadiazole], the values for the concentration for half-maximal inhibition (IC50) in assay [1], in assay [2] and in assay [3] were 1 to 20 µM, 1 to 20 µM and at least 20 µM, respectively.
`Cc1cccc(-c2ccc([N+](=O)[O-])c3nonc23)c1C` [compound 470, 4-(2,3-dimethylphenyl)-7-nitro-2,1,3-benzoxadiazole]: the IC50 in assay [1] was 1 to 20 µM; in assay [2], 1 to 20 µM; in assay [3] it was at least 20 µM.
Take `Cc1ccc(C)c(-c2ccc([N+](=O)[O-])c3nonc23)c1` [compound 471, 4-(2,5-dimethylphenyl)-7-nitro-2,1,3-benzoxadiazole]: the IC50 is 1 to 20 µM in assay [1], 1 to 20 µM in assay [2] and at least 20 µM in assay [3].
For the compound `Cc1ccc(-c2ccc([N+](=O)[O-])c3nonc23)cc1C` [compound 472, 4-(3,4-dimethylphenyl)-7-nitro-2,1,3-benzoxadiazole], the IC50 in assay [1], in assay [2] and in assay [3] was 1 to 20 µM throughout.
Regarding `Cc1cccc(-c2cc(C(F)(F)F)cc3nonc23)c1C` [compound 473, 4-(2,3-dimethylphenyl)-6-(trifluoromethyl)-2,1,3-benzoxadiazole], the IC50 in assay [1], in assay [2] and in assay [3] was at least 20 µM throughout.
With `FC(F)(F)c1cc(-c2ccccc2)c2nonc2c1` [compound 474, 4-phenyl-6-(trifluoromethyl)-2,1,3-benzoxadiazole], the IC50 in assay [1], in assay [2] and in assay [3] was at least 20 µM in each case.
With `FC(F)(F)c1cc(-c2ccc3c(c2)OCO3)c2nonc2c1` [compound 475, 4-(benzodioxol-5-yl)-6-(trifluoromethyl)-2,1,3-benzoxadiazole], the IC50 in assay [1], in assay [2] and in assay [3] was at least 20 µM throughout.
